The text below walks through data of US20250360138A1 (priority 2022, published 2025).

The structures appear in SMILES notation. pEC50: −log10 of the molar value. “Also recorded” adds a separate entry of the source. Read-outs that look alike come from different tables or passages of the source.

For data set [1], the system named is HEK293T. Description: Mammalian cytotoxicity counter screen, luminescent ATP viability assay. Type of data set: cell-based, human. The note with it: toxicity in mammalian cell cultures versus G. lamblia GS-clone 7 trophozoites. (Counterscreens check selectivity or assay interference.)
Experimental: Mammalian cytotoxicity assays. Mammalian cell lines were used for counter screening for general cytotoxicity of hit compounds from the primary screen: human embryonic kidney cells (HEK293T; ATCC CRL-3216) was used in a luminescent ATP assay for detection of cell viability.
Data analysis. Relative luminescence units (RLU) values were analyzed in Genedata Screener (v13.0-Standard). RLU was normalized to neutral controls minus inhibitors (DMSO-treated wells minus metronidazole-treated wells). For single-point primary assay plates, an additional run-wise median correction was applied to reduce screen artifacts, whereas no corrections were applied to triplicate dose response plates. For the mammalian cytotoxicity assays, RLU was uploaded into Genedata Screener, and the data was normalized to DMSO-treated wells minus puromycin-treated wells.
Data set [2] relates to G. lamblia GS-clone H7 trophozoites. The experiment in a line: G. lamblia GS-clone H7 trophozoite growth, ATP-based bioluminescence (BacTiter-Glo) primary screen and dose response. To be noted: read-out: Anti-Giardia EC50. The class given is cell-based.
In data set [3] the test system is G. lamblia WB6 (Assemblage A). Description: Cell growth inhibition against G. lamblia WB6. The class given is cell-based, Giardia lamblia. Here is the method:
(§1) Giardia lamblia culture. G. lamblia WB6 strain, G. lamblia CBG99 strain, metronidazole-resistant strain 713-M3 and G. lamblia (Lambl) Alexeieff trophozoites (GS-clone H7; ATCC 50581) used for the primary screening were maintained in modified TYI-S-33 medium (ATCC 2695) and assayed as earlier described (Keister, 1983, Trans R Soc Trop Med Hyg 77: 487-488). Subsequent assays, including the mouse model of infection, used the G. lamblia click beetle green (CBG99) strain which was grown and assayed as previously described (Michaels et al., 2020, J Antimicrob Chemother 75:1218-1227; and Keister, 1983, Trans R Soc Trop Med Hyg 77:487-488).

In data set [4] the test system is metronidazole resistant 713-M3 strain. The experiment in a line: Cell growth inhibition against metronidazole resistant 713-M3 strain. The class given is cell-based, Giardia lamblia. The procedure: as §1
Data set [5] is described as follows: Resazurin-based viability assay, CRL-8155. The class given is cell-based. To be noted: human, CRL-8155 lymphocytic cells; CRL-8155 cells. Here is the method: (§2) Experimental details for the assays were earlier described (Love et al., 2017, PLoS Negl Trop Dis 11:e0005373). Compounds in the follow-up assays were also tested for the inhibition of CRL-8155 (human lymphocytic cells and human hepatocellular carcinoma cells (HepG2; ATCC HB-8065) in a resazurin-based viability assay as indicators of potential host cell toxicity. Assays were performed as previously reported (Vidadala et al., 2014, Eur J Med Chem 74:562-57).

The nature of data set [6]: Resazurin-based viability assay, HepG2. The class given is cell-based. To be noted: human, HepG2 hepatocellular carcinoma cells. The procedure: as §2
Data set [7] relates to G. lamblia CBG99. Description: Luciferase reporter acute murine Giardia infection model, whole animal IVIS imaging. Type of data set: in vivo, Giardia lamblia. The text has this: The method relies on a stable constitutive luciferase reporter, CBG99 (Click beetle green), that correlates with parasite load in vitro and in vivo. […] Only mice with confirmed infections are used in experiments.
All animal experiments were approved by the Institutional Animal Care and Use Committees at the University of Washington.
The method relies on a stable constitutive reporter, CBG99, that correlates with total parasite load.
(Reporter assays use an easily measured gene product as a stand-in for the process of interest.)

Data set [8] is described as follows: Mouse pharmacokinetics, plasma concentration by LC-MS/MS. The class given is in vivo. To be noted: for half-life: read-out: average half-life (t1/2); for Cmax: mouse plasma. Here is the method: Methods for pharmacokinetic studies and analysis of mouse plasma compound concentrations by liquid chromatography with tandem mass spectrometry (LC-MS/MS) have previously been described (Hulverson et al., 2017, J Infect Dis 215:1275-1284; Ojo et al., 2012, J Clin Invest 122:2301-2305; and Schaefer et al., 2016, J Infect Dis 214:1856-1864). The pK studies was performed in groups of 3 mice per compound. […] Blood samples collected at intervals between 0.5 and 24 hours were separated and extracted with acetonitrile for measurement of compound concentrations by combined liquid chromatography-electrospray mass spectrometry (LC/ES-MS).

Data set [9] can be described thus: Clinical evaluation of overall health of mice in PK and efficacy studies. The class given is in vivo.
The nature of data set [10]: Mouse pharmacokinetics, plasma concentration by LC-MS/MS. Type of data set: in vivo. To be noted: infected mice, all treatment groups, days 6 and 7 post-infection (24 and 48 hours after first dose).
For data set [11] the following is noted: adult humans, daily oral doses over 7 days; cited from earlier work.
The mark [12] stands for this setting: G. lamblia GS-clone H7 (Assemblage B) trophozoites, 48 hours, dose response.

In the case of `CS(=O)(=O)Nc1ccc(C(=O)O[C@@H](Cc2c(Cl)c[n+]([O-])cc2Cl)c2ccc(OC(F)F)c(OCC3CC3)c2)cc1OCC1CC1` [CHF-6001], the “Selectivity index (SI), CC50/EC50” value in data set [1] is more than 12.
Broadly, the pEC50 is the EC50 on a negative log10 scale, so that one unit is a factor of ten. Usually CC50 stands for the concentration giving 50% cytotoxicity. The low end stands for harm at low concentration, the high end for better tolerance by the cells. One may read the Cmax as the peak of the concentration-time curve. The term AUC denotes the area under the concentration-time curve, a measure of exposure. A low value points to low exposure. A word on the Tmax: it is the time at which the peak concentration occurs. For `C=CC(=O)N[C@H]1CN(c2nc(Nc3cn(C)nc3OC)c3ncn(C)c3n2)C[C@@H]1F` [Mavelertinib], the pEC50 was 5.63 in data set [2] (Giardia duodenalis, 48 h); 6.57 in [3] (Giardia duodenalis); 7.15 in data set [4] (Giardia duodenalis). The CC50 in data set [5] and in data set [6] was more than 80 µM in each case. The clearance of infection entry in [7] (IFN-γ-knockout mice, 1 mg/kg QD×4 days (days 6-9 p.i.), 1 mg/kg) was “None of the 1 mg/kg QD×4 days mice were relieved of their infection; also recorded: did not clear the infection after 4 doses”; in data set [7] (mice, 2.5 mg/kg QD×2 days), “one of four mice remained infected”; in data set [7] (mice, 50 mg/kg QD for 3 days, oral), “appeared to clear the infection”; in data set [7] (mice, one- and two-day dosing of 50 mg/kg QD), “all treated mice were cleared of infection and remained clear a week after dosing”. In data set [7] (dosed as low as 5 mg/kg or as high as 50 mg/kg), the “efficacy in the acute murine Giardia infection model” value is recorded as “efficacious; also recorded: effectively clears Giardia infection”. Besides, the “clearance of infection (luminescence signal)” value in data set [7] (mice, 5 mg/kg QD×2 days, 5 mg/kg) is listed as “cleared the infection below the background signal; also recorded: absence of luminescence signal”; in data set [7] (mice, 20 mg/kg QD×2 days, 20 mg/kg), “cleared the infection below the background signal; also recorded: absence of luminescence signal”; in data set [7] (mice, 50 mg/kg QD×1 day, 50 mg/kg), “cleared the infection below the background signal; also recorded: absence of luminescence signal”. Moreover, in data set [7] (mice, one week after the last therapeutic dose), the “parasite rebound after treatment” value is recorded as “parasites did not rebound”. Moreover, the half-life in data set [8] (in vivo, mouse, single oral 5 mg/kg) worked out at 3.99 h; in data set [8] (plasma, mouse, single oral 20 mg/kg), 2.91 h; in data set [8] (plasma, mouse, single oral 50 mg/kg), 2.09 h. For the same compound, the figures for the Cmax in data set [8] (single oral 5 mg/kg), in [8] (single oral 20 mg/kg) and in data set [8] (single oral 50 mg/kg) were 0.63 µM, 3.5 µM and 9.3 µM, respectively. In addition, the plasma level result in [8] (mouse, 1 mg/kg QD, 1 mg/kg) is “barely detectable in the plasma of one mouse at 0.5 hours post dose and below the limit of detection at all subsequent time points”. In addition, the “plasma concentration at 24 h post dose” value in data set [8] (mouse, all dosage groups, single dose) is “cleared from plasma by 24 hours; also recorded: below the detection limit”. Also, the AUC in [8] (mouse, single oral 5 mg/kg) was 89 µmol·min/L; in data set [8] (mouse, single oral 20 mg/kg), 300 µmol·min/L; in [8] (mouse, single oral 50 mg/kg), 812 µmol·min/L. For the same compound, the Clearance in data set [8] (mouse, single oral 5 mg/kg) was found to be 0.015 L/min; in [8] (mouse, single oral 20 mg/kg) it was 0.004 L/min; in data set [8] (mouse, single oral 50 mg/kg), 0.0016 L/min. The Tmax in data set [8] (plasma, oral, mouse, all doses) was found to be 0.5 h. Moreover, in data set [9], the “signs of toxicity in mice” value is “no sign of toxicity; also recorded: no observable mavelertinib induced toxicology potentials”. Further, the plasma trough levels result in data set [10] is “below the limit of quantitation”. Moreover, the “daily oral dose causing diarrhea and skin toxicities as most common adverse events” value in data set [11] is on record as more than 150 mg.
With `CS(=O)(=O)OCCN(CCBr)c1c(C(=O)NCCOP(=O)(O)O)cc([N+](=O)[O-])cc1[N+](=O)[O-]` [PR-104], in data set [2] (setting [12]), the pEC50 is 5.70.
As to `CCN(CC)CCn1c(=O)c(Cc2ccc(OC)cc2)nc2ccccc21` [caroverine], the pEC50 in data set [2] (Giardia duodenalis, G. lamblia GS-clone H7 (Assemblage B) trophozoites, 48 hours, dose response) was 4.86. Also, the “Selectivity index (SI), CC50/EC50” value in data set [1] is listed as more than 2.
Consider `Cc1ncc([N+](=O)[O-])n1CCO` [metronidazole], for which the clearance of infection entry in data set [7] (mice, 20 mg/kg QD×3 days) is listed as “remained infected after treatment”.
In the case of `CC(=O)C[C@H]1CCCCN1` [pelletierine], the pEC50 in [2] (setting [12]) was 4.69; in [3] it was less than 4.60; in data set [4] (metronidazole resistant 713-M3, read-out: EC50) it was less than 4.60.
As for `CCCN(CCC)c1ccc(N=Nc2ccccc2C(=O)O)cc1` [propyl red], the pEC50 in [2] (setting [12]) is 5.24.
